Tests used:
EGFRL858R = EGFRL858R (Homo sapiens, UniProt P00533, L858R); test: In vitro enzymatic activity assay (Z'-LYTE), EGFR L858R; assay type: biochemical; details: Z'-LYTE FRET peptide assay; read-out: EGFRL858R kinase activity (IC50)
From the text: (§1) In vitro enzymatic activity assay: using Z′-LYTE™ technology (detect fluorescence, coupled-enzyme format, based on the differential sensitivity of phosphorylated and non-phosphorylated peptides to proteolytic cleavage), based on FRET, using Z′ LYTE™ FRET peptide substrate, detect the activity of compounds against enzymatic. […] After one hour, site specific protease which can recognize and cleaves non-phosphorylated FRET-peptide. After another hour, using an excitation wavelength of 400 nm excites, then detect the […] at 445 nm and 520 nm.

EGFR T790M kinase = biological target: T1, EGFR T790M kinase (Homo sapiens, UniProt P00533, T790M); test: In vitro enzymatic activity assay (Z'-LYTE), EGFR T790M; assay type: biochemical; details: Z'-LYTE FRET peptide assay; read-out: EGFRT790M kinase activity (IC50)
T1 construct: purchased invitrogen PV4803
From the text: as §1

EGFRL861Q = EGFRL861Q (Homo sapiens, UniProt P00533, L861Q); test: In vitro enzymatic activity assay (Z'-LYTE), EGFR L861Q; assay type: biochemical; details: Z'-LYTE FRET peptide assay; read-out: EGFRL861Q kinase activity (IC50)
Sequence of EGFRL861Q (P00533 25-1210 L861Q): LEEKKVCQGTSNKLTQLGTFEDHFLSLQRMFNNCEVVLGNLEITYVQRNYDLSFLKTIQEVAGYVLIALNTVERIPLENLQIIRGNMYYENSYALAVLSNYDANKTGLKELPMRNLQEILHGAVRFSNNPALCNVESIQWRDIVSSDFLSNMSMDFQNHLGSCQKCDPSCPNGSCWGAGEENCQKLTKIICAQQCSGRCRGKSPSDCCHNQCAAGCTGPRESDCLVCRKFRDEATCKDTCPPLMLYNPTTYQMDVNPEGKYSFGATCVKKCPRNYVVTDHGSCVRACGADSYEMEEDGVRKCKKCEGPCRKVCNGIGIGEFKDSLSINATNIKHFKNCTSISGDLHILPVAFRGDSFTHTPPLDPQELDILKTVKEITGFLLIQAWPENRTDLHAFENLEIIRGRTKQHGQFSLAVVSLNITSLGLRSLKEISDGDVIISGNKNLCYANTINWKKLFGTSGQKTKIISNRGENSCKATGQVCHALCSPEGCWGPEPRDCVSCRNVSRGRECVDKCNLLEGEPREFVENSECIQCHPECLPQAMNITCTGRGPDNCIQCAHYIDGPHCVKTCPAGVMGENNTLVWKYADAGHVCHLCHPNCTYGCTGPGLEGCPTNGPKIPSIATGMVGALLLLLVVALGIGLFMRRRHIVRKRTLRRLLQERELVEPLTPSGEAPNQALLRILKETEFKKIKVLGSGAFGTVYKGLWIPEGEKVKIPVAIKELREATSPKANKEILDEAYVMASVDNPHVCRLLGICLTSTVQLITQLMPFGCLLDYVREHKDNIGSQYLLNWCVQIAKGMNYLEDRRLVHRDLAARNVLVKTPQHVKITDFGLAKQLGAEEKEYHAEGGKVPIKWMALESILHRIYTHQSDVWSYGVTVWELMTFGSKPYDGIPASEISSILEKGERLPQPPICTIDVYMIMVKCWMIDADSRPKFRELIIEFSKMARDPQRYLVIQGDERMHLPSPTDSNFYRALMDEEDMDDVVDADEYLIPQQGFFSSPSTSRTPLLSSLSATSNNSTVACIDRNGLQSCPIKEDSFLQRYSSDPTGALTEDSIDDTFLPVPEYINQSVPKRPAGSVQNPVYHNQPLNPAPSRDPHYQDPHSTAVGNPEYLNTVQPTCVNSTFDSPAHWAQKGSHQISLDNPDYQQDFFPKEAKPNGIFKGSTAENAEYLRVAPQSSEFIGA
From the text: as §1

[1] = system: A431 (Human epidermal carcinoma, EGFR high expression); test: Cell proliferation by MTT, A431; assay type: cell-based; details: A-431, read-out: A431 50% inhibitory concentration (IC50), 72 h
EGFRL858R + T790M = EGFRL858R + T790M (Homo sapiens, UniProt P00533, L858R/T790M); test: In vitro enzymatic activity assay (Z'-LYTE), EGFR L858R + T790M; assay type: biochemical; details: Z'-LYTE FRET peptide assay; read-out: EGFRL858R + T790M kinase activity (IC50)
Sequence of EGFRL858R + T790M (P00533 25-1210 T790M/L858R): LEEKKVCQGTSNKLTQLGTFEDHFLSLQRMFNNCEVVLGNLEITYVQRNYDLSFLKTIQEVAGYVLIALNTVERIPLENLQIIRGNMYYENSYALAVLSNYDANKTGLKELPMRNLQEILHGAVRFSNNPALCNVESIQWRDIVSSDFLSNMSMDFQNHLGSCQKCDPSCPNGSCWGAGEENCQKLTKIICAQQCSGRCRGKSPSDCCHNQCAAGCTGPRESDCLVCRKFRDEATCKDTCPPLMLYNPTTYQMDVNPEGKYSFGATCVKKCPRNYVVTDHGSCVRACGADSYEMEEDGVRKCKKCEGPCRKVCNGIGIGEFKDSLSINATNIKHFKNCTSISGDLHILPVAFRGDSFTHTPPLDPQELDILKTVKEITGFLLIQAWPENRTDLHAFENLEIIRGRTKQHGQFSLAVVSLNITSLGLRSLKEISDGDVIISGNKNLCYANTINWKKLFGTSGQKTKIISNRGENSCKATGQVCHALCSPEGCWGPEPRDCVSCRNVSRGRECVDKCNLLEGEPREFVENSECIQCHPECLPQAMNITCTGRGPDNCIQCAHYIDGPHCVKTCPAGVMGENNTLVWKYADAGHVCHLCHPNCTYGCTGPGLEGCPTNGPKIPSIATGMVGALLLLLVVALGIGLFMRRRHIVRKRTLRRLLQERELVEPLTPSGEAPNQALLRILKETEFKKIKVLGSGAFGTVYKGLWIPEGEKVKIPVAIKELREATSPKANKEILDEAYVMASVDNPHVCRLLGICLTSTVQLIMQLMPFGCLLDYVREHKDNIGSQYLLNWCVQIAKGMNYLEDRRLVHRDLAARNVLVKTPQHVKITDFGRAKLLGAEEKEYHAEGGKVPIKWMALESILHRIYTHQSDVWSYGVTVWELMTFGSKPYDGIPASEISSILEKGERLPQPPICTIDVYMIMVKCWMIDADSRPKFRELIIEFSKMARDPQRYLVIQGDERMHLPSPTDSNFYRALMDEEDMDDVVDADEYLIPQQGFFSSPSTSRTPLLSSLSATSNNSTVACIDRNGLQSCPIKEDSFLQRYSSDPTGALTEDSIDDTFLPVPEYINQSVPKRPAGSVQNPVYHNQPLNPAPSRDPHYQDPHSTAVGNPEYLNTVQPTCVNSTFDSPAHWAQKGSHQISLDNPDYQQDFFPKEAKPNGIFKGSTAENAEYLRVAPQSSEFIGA
From the text: as §1

EGFRWT = EGFRWT (Homo sapiens, UniProt P00533); test: In vitro enzymatic activity assay (Z'-LYTE), wild type EGFR; assay type: biochemical; details: Z'-LYTE FRET peptide assay; read-out: EGFRWT kinase activity (IC50)
Sequence of EGFRWT (P00533 25-1210): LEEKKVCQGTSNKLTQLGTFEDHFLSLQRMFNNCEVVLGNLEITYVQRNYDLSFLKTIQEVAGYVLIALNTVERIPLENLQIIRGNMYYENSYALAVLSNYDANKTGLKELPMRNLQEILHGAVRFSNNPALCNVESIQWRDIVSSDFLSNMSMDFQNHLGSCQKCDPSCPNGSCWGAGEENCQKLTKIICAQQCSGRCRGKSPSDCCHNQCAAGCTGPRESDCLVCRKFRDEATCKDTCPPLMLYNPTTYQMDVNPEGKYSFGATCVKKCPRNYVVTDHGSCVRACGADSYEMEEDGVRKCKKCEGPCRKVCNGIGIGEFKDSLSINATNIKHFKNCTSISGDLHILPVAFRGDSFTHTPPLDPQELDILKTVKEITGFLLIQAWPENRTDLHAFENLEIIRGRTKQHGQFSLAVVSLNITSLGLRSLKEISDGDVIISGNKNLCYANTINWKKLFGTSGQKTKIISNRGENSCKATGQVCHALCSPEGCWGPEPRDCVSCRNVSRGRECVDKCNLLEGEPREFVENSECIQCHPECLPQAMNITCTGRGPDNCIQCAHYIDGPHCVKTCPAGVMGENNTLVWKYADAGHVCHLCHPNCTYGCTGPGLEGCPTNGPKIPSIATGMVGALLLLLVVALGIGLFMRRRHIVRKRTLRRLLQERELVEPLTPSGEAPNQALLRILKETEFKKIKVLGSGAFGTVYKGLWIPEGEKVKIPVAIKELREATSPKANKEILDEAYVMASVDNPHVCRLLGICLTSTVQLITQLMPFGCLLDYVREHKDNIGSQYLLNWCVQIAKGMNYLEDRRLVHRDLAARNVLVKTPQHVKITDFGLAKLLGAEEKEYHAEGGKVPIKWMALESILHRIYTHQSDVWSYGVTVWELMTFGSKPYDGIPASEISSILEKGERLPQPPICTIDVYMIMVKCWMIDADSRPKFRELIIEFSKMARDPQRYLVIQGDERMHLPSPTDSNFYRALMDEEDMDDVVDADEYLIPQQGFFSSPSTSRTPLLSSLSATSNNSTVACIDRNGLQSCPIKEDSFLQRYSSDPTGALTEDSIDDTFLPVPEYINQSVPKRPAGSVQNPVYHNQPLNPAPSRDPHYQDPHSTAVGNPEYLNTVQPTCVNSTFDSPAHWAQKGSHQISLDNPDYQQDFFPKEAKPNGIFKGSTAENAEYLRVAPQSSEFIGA
From the text: as §1

[2] = system: H1975 (lung cancer cells, EGFR L858R&T790M); test: Cell proliferation by MTT, H1975; assay type: cell-based; details: Homo sapiens, NCI-H1975, read-out: H1975 50% inhibitory concentration (IC50), 72 h
[3] = system: HCC827 (lung cancer cells, EGFR E746-A750 deletion); test: Cell proliferation by MTT, HCC827; assay type: cell-based; details: Homo sapiens, HCC827, read-out: HCC827 50% inhibitory concentration (IC50), 72 h

Sequence of EGFRL858R (P00533 25-1210 L858R): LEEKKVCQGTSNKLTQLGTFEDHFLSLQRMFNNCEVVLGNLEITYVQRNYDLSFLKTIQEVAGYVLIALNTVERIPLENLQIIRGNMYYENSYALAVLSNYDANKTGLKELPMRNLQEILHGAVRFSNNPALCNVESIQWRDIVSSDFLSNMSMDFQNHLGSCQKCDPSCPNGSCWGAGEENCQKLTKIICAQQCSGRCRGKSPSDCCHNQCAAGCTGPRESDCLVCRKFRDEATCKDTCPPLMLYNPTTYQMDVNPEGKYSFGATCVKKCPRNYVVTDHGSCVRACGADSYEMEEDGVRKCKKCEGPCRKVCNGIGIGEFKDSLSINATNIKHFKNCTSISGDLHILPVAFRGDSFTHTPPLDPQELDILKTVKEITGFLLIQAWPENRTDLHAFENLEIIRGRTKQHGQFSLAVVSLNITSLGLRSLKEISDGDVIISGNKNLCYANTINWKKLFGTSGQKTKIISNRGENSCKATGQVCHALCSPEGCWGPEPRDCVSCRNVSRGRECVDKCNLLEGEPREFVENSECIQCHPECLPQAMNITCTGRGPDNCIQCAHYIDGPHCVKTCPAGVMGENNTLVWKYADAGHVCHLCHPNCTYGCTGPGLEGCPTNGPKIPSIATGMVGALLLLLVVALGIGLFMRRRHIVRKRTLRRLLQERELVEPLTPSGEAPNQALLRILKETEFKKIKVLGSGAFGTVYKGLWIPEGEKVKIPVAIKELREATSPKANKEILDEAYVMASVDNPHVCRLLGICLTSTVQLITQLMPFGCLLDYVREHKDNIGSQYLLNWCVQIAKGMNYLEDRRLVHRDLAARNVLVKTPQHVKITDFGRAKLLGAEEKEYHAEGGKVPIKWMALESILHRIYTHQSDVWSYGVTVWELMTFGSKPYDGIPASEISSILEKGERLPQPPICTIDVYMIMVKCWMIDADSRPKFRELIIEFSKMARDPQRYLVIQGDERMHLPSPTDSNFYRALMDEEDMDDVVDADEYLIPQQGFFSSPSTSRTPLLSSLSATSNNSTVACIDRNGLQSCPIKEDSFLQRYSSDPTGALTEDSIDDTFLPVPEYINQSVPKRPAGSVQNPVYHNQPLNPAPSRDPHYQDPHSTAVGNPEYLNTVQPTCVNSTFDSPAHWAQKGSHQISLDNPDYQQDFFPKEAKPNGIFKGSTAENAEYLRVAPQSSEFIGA

Compound	IC50 (EGFRL858R) [µM]	IC50 (EGFR T790M kinase) [µM]	IC50 (EGFRL861Q) [µM]	IC50 [1] [µM]	IC50 (EGFRL858R + T790M) [µM]	IC50 (EGFRWT) [µM]	IC50 [2] [µM]	IC50 [3] [µM]
C=CC(=O)Nc1cccc(N2C(=O)N(C)Cc3cnc(Nc4ccc(N5CC[C@@H](N(C)C)C5)cc4OC)nc32)c1 [C-EGF15, (R)—N-(3-(7-(4-(3-(dimethylamino)pyrrolidin-1-yl)-2-methoxyphenylamino)-3-methyl-2-oxo-3,4-dihydropyrimido[4,5-d]pyrimidin-1(2H)-yl)phenyl)acrylamide]	≤ 0.01	0.01 to 0.1	≤ 0.01	–	≤ 0.01	0.01 to 0.1	0.449	–
C=CC(=O)Nc1cccc(N2C(=O)N(c3ccc(-c4ccccc4)cc3)Cc3cnc(Nc4ccc(N5CCN(C)CC5)cc4OC)nc32)c1 [C-EGF30, N-(3-(3-(biphenyl-4-yl)-7-(2-methoxy-4-(4-methylpiperazin-1-yl)phenylamino)-2-oxo-3,4-dihydropyrimido[4,5-d]pyrimidin-1(2H)-yl)phenyl)acrylamide]	≤ 0.01	≤ 0.01	≤ 0.01	–	≤ 0.01	≤ 0.01	–	–
C=CC(=O)Nc1cccc(N2C(=O)N(c3ccccc3)Cc3cnc(Nc4ccc(N5CCN(C)CC5)cc4OC)nc32)c1 [C-EGF27, N-(3-(7-(2-methoxy-4-(4-methylpiperazin-1-yl)phenylamino)-2-oxo-3-phenyl-3,4-dihydropyrimido[4,5-d]pyrimidin-1(2H)-yl)phenyl)acrylamide]	≤ 0.01	≤ 0.01	≤ 0.01	–	≤ 0.01	≤ 0.01	–	–
C=CC(=O)Nc1cccc(N2C(=O)N(Cc3ccccc3)Cc3cnc(Nc4ccc(N5CCN(C)CC5)cc4OC)nc32)c1 [C-EGF29, N-(3-(3-benzyl-7-(2-methoxy-4-(4-methylpiperazin-1-yl)phenylamino)-2-oxo-3,4-dihydropyrimido[4,5-d]pyrimidin-1(2H)-yl)phenyl)acrylamide]	≤ 0.01	≤ 0.01	≤ 0.01	–	≤ 0.01	≤ 0.01	–	–
C=CC(=O)Nc1cccc(N2C(=O)N(C)Cc3cnc(Nc4ccc(N5CCN(C(C)=O)CC5)cc4OC)nc32)c1 [C-EGF20, N-(3-(7-(4-(4-acetylpiperazin-1-yl)-2-methoxyphenylamino)-3-methyl-2-oxo-3,4-dihydropyrimido[4,5-d]pyrimidin-1(2H)-yl)phenyl)acrylamide]	≤ 0.01	≤ 0.01	≤ 0.01	–	≤ 0.01	≤ 0.01	0.143	–
C=CC(=O)Nc1cccc(N2C(=O)N(c3cccc4ccccc34)Cc3cnc(Nc4ccc(N5CCN(C)CC5)cc4OC)nc32)c1 [C-EGF28, N-(3-(7-(2-methoxy-4-(4-methylpiperazin-1-yl)phenylamino)-3-(naphthalen-1-yl)-2-oxo-3,4-dihydropyrimido[4,5-d]pyrimidin-1(2H)-yl)phenyl)acrylamide]	≤ 0.01	≤ 0.01	≤ 0.01	–	≤ 0.01	≤ 0.01	0.03	0.006
C=CC(=O)Nc1cccc(N2C(=O)N(C)Cc3cnc(Nc4ccc(N5CC[C@H](N(C)C)C5)cc4OC)nc32)c1 [C-EGF16, (S)—N-(3-(7-(4-(3-(dimethylamino)pyrrolidin-1-yl)-2-methoxyphenylamino)-3-methyl-2-oxo-3,4-dihydropyrimido[4,5-d]pyrimidin-1(2H)-yl)phenyl)acrylamide]	≤ 0.01	0.01 to 0.1	≤ 0.01	–	≤ 0.01	≤ 0.01	0.38	–

Further lines, results first:

IC50 (EGFRL858R) [µM]	IC50 (EGFR T790M kinase) [µM]	IC50 (EGFRL861Q) [µM]	IC50 [1] [µM]	IC50 (EGFRL858R + T790M) [µM]	IC50 (EGFRWT) [µM]	IC50 [2] [µM]	IC50 [3] [µM]	Compound
1 to 10	1 to 10	1 to 10	> 30	1 to 10	1 to 10	> 20	–	CCC(=O)Nc1cccc(N2C(=O)N(C)Cc3cnc(Nc4ccc(N5CCN(C)CC5)cc4OC)nc32)c1 [C-EGF34, N-(3-(7-(2-methoxy-4-(4-methylpiperazin-1-yl)phenylamino)-3-methyl-2-oxo-3,4-dihydropyrimido[4,5-d]pyrimidin-1(2H)-yl)phenyl)propionamide]
≤ 0.01	≤ 0.01	≤ 0.01	–	≤ 0.01	≤ 0.01	–	–	C=CC(=O)Nc1cccc(N2C(=O)N(c3ccc(F)c(Cl)c3)Cc3cnc(Nc4ccc(N5CCN(C)CC5)cc4OC)nc32)c1 [C-EGF38, N-(3-(3-(3-chloro-4-fluorophenyl)-7-(2-methoxy-4-(4-methylpiperazin-1-yl)phenylamino)-2-oxo-3,4-dihydropyrimido[4,5-d]pyrimidin-1(2H)-yl)phenyl)acrylamide]
≤ 0.01	≤ 0.01	≤ 0.01	–	≤ 0.01	≤ 0.01	–	–	C=CC(=O)Nc1cccc(N2C(=O)N(c3cccc(Cl)c3)Cc3cnc(Nc4ccc(N5CCN(C)CC5)cc4OC)nc32)c1 [C-EGF35, N-(3-(3-(3-chlorophenyl)-7-(2-methoxy-4-(4-methylpiperazin-1-yl)phenylamino)-2-oxo-3,4-dihydropyrimido[4,5-d]pyrimidin-1(2H)-yl)phenyl)acrylamide]
≤ 0.01	0.01 to 0.1	≤ 0.01	–	0.01 to 0.1	≤ 0.01	–	–	C=CS(=O)(=O)Nc1cccc(N2C(=O)N(C)Cc3cnc(Nc4ccc(N5CCN(C)CC5)cc4OC)nc32)c1 [C-EGF40, N-(3-(7-(2-methoxy-4-(4-methylpiperazin-1-yl)phenylamino)-3-methyl-2-oxo-3,4-dihydropyrimido[4,5-d]pyrimidin-1(2H)-yl)phenyl)ethenesulfonamide]
≤ 0.01	≤ 0.01	≤ 0.01	–	≤ 0.01	≤ 0.01	–	–	C=CC(=O)Nc1cccc(N2C(=O)N(c3ccccc3C)Cc3cnc(Nc4ccc(N5CCN(C)CC5)cc4OC)nc32)c1 [C-EGF39, N-(3-(7-(2-methoxy-4-(4-methylpiperazin-1-yl)phenylamino)-2-oxo-3-o-tolyl-3,4-dihydropyrimido[4,5-d]pyrimidin-1(2H)-yl)phenyl)acrylamide]
≤ 0.01	≤ 0.01	≤ 0.01	–	≤ 0.01	≤ 0.01	–	–	C=CC(=O)Nc1cccc(N2C(=O)N(c3ccc(OCc4ccccc4)cc3)Cc3cnc(Nc4ccc(N5CCN(C)CC5)cc4OC)nc32)c1 [C-EGF32, N-(3-(3-(4-(benzyloxy)phenyl)-7-(2-methoxy-4-(4-methylpiperazin-1-yl)phenylamino)-2-oxo-3,4-dihydropyrimido[4,5-d]pyrimidin-1(2H)-yl)phenyl)acrylamide]
≤ 0.01	≤ 0.01	≤ 0.01	–	≤ 0.01	≤ 0.01	–	–	C=CC(=O)Nc1ccc(F)c(N2C(=O)N(Cc3ccccc3)Cc3cnc(Nc4ccc(N5CCN(C)CC5)cc4OC)nc32)c1 [C-EGF41, N-(3-(3-benzyl-7-(2-methoxy-4-(4-methylpiperazin-1-yl)phenylamino)-2-oxo-3,4-dihydropyrimido[4,5-d]pyrimidin-1(2H)-yl)-4-fluorophenyl)acrylamide]
≤ 0.01	≤ 0.01	≤ 0.01	–	≤ 0.01	≤ 0.01	–	–	C=CC(=O)Nc1cccc(N2C(=O)N(c3cccc(C#N)c3)Cc3cnc(Nc4ccc(N5CCN(C)CC5)cc4OC)nc32)c1 [C-EGF36, N-(3-(3-(3-cyanophenyl)-7-(2-methoxy-4-(4-methylpiperazin-1-yl)phenylamino)-2-oxo-3,4-dihydropyrimido[4,5-d]pyrimidin-1(2H)-yl)phenyl)acrylamide]
≤ 0.01	0.01 to 0.1	≤ 0.01	–	0.01 to 0.1	≤ 0.01	–	–	C=CC(=O)Nc1cccc(N2C(=O)N(c3cccc([N+](=O)[O-])c3)Cc3cnc(Nc4ccc(N5CCN(C)CC5)cc4OC)nc32)c1 [C-EGF37, N-(3-(7-(2-methoxy-4-(4-methylpiperazin-1-yl)phenylamino)-3-(3-nitrophenyl)-2-oxo-3,4-dihydropyrimido[4,5-d]pyrimidin-1(2H)-yl)phenyl)acrylamide]
≤ 0.01	≤ 0.01	≤ 0.01	–	≤ 0.01	≤ 0.01	–	–	C=CC(=O)Nc1cccc(N2C(=O)N(c3ccc(Oc4ccccc4)cc3)Cc3cnc(Nc4ccc(N5CCN(C)CC5)cc4OC)nc32)c1 [C-EGF31, N-(3-(7-(2-methoxy-4-(4-methylpiperazin-1-yl)phenylamino)-2-oxo-3-(4-phenoxyphenyl)-3,4-dihydropyrimido[4,5-d]pyrimidin-1(2H)-yl)phenyl)acrylamide]
